Results published in the SangsterLogP compilation.

How the values were obtained:
[1] = method code SF-HPLC, from DOI: 10.1016/0378-5173(90)90303-l; details: pH 7.4
[2] = method code SF-RC, from PMID: 3380859; details: pH 1.0
[3] = method code SF-RC, from DOI: 10.1016/j.nucmedbio.2008.11.010, PMID: 19217534; details: pH 7.4
[4] = method code SF-AS, from PMID: 12408720; details: pH 7.4
[5] = method code SF-AS, from Rainer, G.; Krüger, U.; Klemm, K. (1981). Synthesis and physico-chemical properties of lonazolac-Ca, a new antiphlogistic/antirheumatic agent. Arzneimittelforschung, 31(4)649-55.
[6] = method code SF-AS, from DOI: 10.1016/j.ejps.2014.12.009, PMID: 25513709; details: pH 7.4
[7] = method code RP-HPLC, from DOI: 10.1016/0043-1354(79)90252-5; details: pH 7.0
[8] = not given; remark: listed apart in the source
[9] = method code SF-HPLC, from DOI: 10.1021/jm100498u, PMID: 20704351; details: pH 7.4
[10] = not given; remark: listed apart in the source
[11] = method code SF, from You, R.; Wang, L.; Cong, L.; Wang, Q.; Cai, P.; Yuan, H. (2007). Physicochemical properties of oxymatrine-phospholipid complex. Pharmaceutical Journal of Chinese People's Liberation Army, …; details: pH 7.5
[12] = pH 7.5
[13] = method code SF-HPLC, from DOI: 10.1016/j.ejmech.2009.03.025, PMID: 19386398; details: pH 7.4
[14] = method code SF-RC, from DOI: 10.1021/jm701375u, PMID: 18307287; details: pH 7.4
[15] = method code SF-GLC, from DOI: 10.1584/jpestics.7.397
[16] = method code SF-AS, from Falk, M.; Luecke, L. (1989). Transport of substances through lipid membranes. 11. Effect of esterification on the dissociation and permeation of orotic acid. Pharmazie, 44(9)647.; details: pH 1.2
[17] = not given; remark: listed apart in the source
[18] = from Comini, L.; Núñez Montoya, S.; Argüello, G.; Cabrera, J. (2006). Partition coefficient (log P) determination of anthraquinone derivatives isolated from Heterophyllaea pustulata Hook, f. (Rubiaceae). …; details: pH 7.4
[19] = not given; remark: listed apart in the source
[20] = method code SF, from DOI: 10.1016/j.ecoenv.2008.09.011, PMID: 19560203
[21] = not given; remark: listed apart in the source
[22] = not given; remark: listed apart in the source
[23] = not given; remark: listed apart in the source
[24] = method code SF-AS, from DOI: 10.1016/s0928-0987(01)00170-1, PMID: 11500262; details: pH 12.5
[25] = not given; remark: listed apart in the source
[26] = not given; remark: listed apart in the source
[27] = method code SF-AS, from PMID: 6540096; details: pH 7.5
[28] = method code SF-AS, from DOI: 10.1248/cpb.42.1084, PMID: 8069960
[29] = pH 7.4
[30] = not given; remark: listed apart in the source
[31] = method code SF-HPLC, from DOI: 10.1016/0378-5173(85)90221-2; details: pH 1.5
[32] = method code SF-AS, from DOI: 10.1081/jlc-100101656
[33] = not given; remark: listed apart in the source
[34] = method code SF-AS, from DOI: 10.1016/s0006-291x(75)80410-4, PMID: 1111518
[35] = not given; remark: listed apart in the source
[36] = method code SF-RC, from DOI: 10.1016/s0969-8051(03)00053-2; details: pH 7.4
[37] = method code SF, from Li, Y.; Sun, S.; Zheng, Y. (2012). Determination of partition coefficients of icariside-II and icaritin based on the HPLC retention time. Chinese Pharmaceutical Journal, 47, 122-126.
[38] = method code SF-AS, from DOI: 10.1002/jps.2600701116, PMID: 7299671; details: pH 2.2
[39] = method code SF-AS, from DOI: 10.1016/s0026-895x(25)10375-1
[40] = not given; remark: listed apart in the source
[41] = method code SF-AS, from DOI: 10.1021/jm9800301, PMID: 9748357; details: pH 7.4
[42] = method code SF-RC, from DOI: 10.17863/cam.48378, PMID: 23133799; details: pH 7.4
[43] = not given; remark: listed apart in the source
[44] = not given; remark: listed apart in the source
[45] = method code G, from Wang, L.; Li, H.; Wang, X.; Zhang, Z. (1993). Determination of aqueous solubilities and partition coefficients of substitutive ethylketone congeners by generator column. Huanjing Huaxue, 12(2)151-154.

CN(C)C(=O)COC(=O)c1cc(S(N)(=O)=O)c(Cl)cc1NCc1ccco1
logD [1]: 1.18

Cn1c(CCCC(=O)O)nc2cc(N(CCCl)CCCl)ccc21
logD [2]: 0.44

N#Cc1ccc(C(c2ccc(C#N)cc2)n2cncn2)cc1
logD [3]: 1.84

Cc1ccc(C(=O)Cn2c3c(sc2=N)CCCC3)cc1
logD [4]: 1.49

O=C(O)Cc1cn(-c2ccccc2)nc1-c1ccc(Cl)cc1
logP [5]: 4.13

c1cc(-c2cnc3c(-c4ccncc4)cnn3c2)ccn1
logP: 2.5

COC1=CC(=O)CC(C)C12Oc1c(Cl)c(OC)cc(OC)c1C2=O (stereo unspecified)
logD [6]: 2.33

COc1ccc(C(c2ccc(OC)cc2)C(Cl)(Cl)Cl)cc1
logD [7]: 3.82

C[C@]12N[C@H](Cc3ccccc31)c1ccccc12
logP [8]: 1.79

CCOC(=O)c1cncn1C(C)c1ccc(C2(C(F)(F)F)N=N2)cc1 (stereo unspecified)
logD [9]: 4.4

COCCN1C=CC(=C2C(=O)c3ccc(Cl)cc3C2=O)C=C1
logP [10]: 2.78

O=C1CCC[C@@H]2[C@H]3CCC[N@+]4([O-])CCC[C@@H](CN12)[C@@H]34
logD [11]: -0.86

CCN1CCC[C@H]1CNC(=O)c1c(O)c(I)cc(OC)c1OC
logD [12]: 2.5

Cc1ccc(N=NC(C)C(=O)NCCc2ccc(O)cc2)cc1 (stereo unspecified)
logD [13]: 3.9

Brc1cccc(N2CCN(Cc3cnn4ccccc34)CC2)n1
logD [14]: 1.98

CC(C)Oc1cccc(NC(=O)c2ccccc2C(F)(F)F)c1
logP [15]: 3.7

CCCCCCCCCCOC(=O)c1cc(=O)[nH]c(=O)[nH]1
logD [16]: 2.85

CC(CC(=O)O)(N=O)c1cc(Oc2ccc(C(F)(F)F)cc2Cl)ccc1[N+](=O)[O-] (stereo unspecified)
logP [17]: 4.3

COc1c(CO)c(O)cc2c1C(=O)c1ccccc1C2=O
logD [18]: 1.29

COc1cccc(N(C)C(=N)Nc2cc(SC)ccc2Cl)c1
logP [19]: 2.34

CCOC(=O)C1=C[C@@H](OC(CC)CC)[C@H](NC(C)=O)[C@@H](N)C1
logP [20]: 1.21

Cc1ccc(CCNc2cc(-c3n[nH]c(N)n3)ccn2)cc1C
logP [21]: 3.08

Nc1cc2c3c(cccc3c1)-c1ccccc1-2
logP [22]: 3.14

c1cnc(N2CCN(Cc3ccc4c(c3)OCO4)CC2)nc1
logP [23]: 2.84

CN(C)CCCc1ccccc1-c1ccccc1
logD [24]: 5.53

O=C(O)CCC(=O)c1ccc(-c2ccccc2)cc1
logP [25]: 2.91

CCCCC(CC)CP(=O)(O)CC(CC)CCCC (stereo unspecified)
logP [26]: 3.92

CCc1cc2c(s1)N(C)C(=O)CN=C2c1ccccc1Cl
logD [27]: 3.35

COc1ccc(Nc2ccnc3cc(Cl)ccc23)cc1
logP [28]: 4.94

O=C(Nc1ccnc(NC(=O)C2CC2)c1)c1c(Cl)cccc1Cl
logD [29]: 3.4

CCCn1c(=O)c2[nH]c(-c3ccc(S(=O)(=O)O)cc3)nc2n(CCC)c1=O
logP [30]: -0.03

CCCc1c2c(c(O)c3c(=O)cc(C(=O)O)oc13)CCCC2
logD [31]: 4.4

CCc1onc(C)c1NC1=CC(=O)C(=O)c2ccccc21
logP [32]: 2.14

Oc1ccc2ccccc2c1/N=N/c1ccccc1
logP [33]: 5.86

C=CCN1CCN(C(=O)N=NC(=O)N2CCN(CC=C)CC2)CC1
logP [34]: 0.79

O=[N+]([O-])c1cc(Cl)c(/N=N/c2ccc(N(CCO)CCO)cc2Cl)c(Cl)c1
logP [35]: 3.9

CCCn1c(=O)c2[nH]c(C3CCCC3)nc2n(C/C=C/I)c1=O
logD [36]: 2.96

COc1ccc(-c2coc3cc(O)ccc3c2=O)cc1
logP [37]: 3.32

C=C(CC(=O)c1ccc(-c2ccccc2Cl)cc1)C(=O)O
logD [38]: 3.32

CCN1CCC[C@H]1CNC(=O)c1c(OC)ccc(Br)c1OC
logP [39]: 2.1

N#Cc1ccc(OCC2CCN(C/C=C/I)CC2)cc1
logP [40]: 3.36

O=C(NCc1ccc(O)cc1)C(=O)c1c[nH]c2ccc([N+](=O)[O-])cc12
logD [41]: 2.67

FCCOCCON=C1C=C(C#Cc2ccccn2)CCC1
logD [42]: 1.9

O=C1NC(=O)C2(CCCCCCCCCCC2)C(=O)N1
logP [43]: 3.51

N#Cc1ccc(CN2CCC(COC/C=C/I)CC2)cc1
logP [44]: 3.24

COc1ccc(C(=O)CSc2ccc(C)cc2)cc1
logP [45]: 2.47
